Laboratory results as given in publication PMC9866460, “Antifungal Combination Eye Drops for Fungal Keratitis Treatment” (Pharmaceutics, 2022).
Values after ≈ are worked out from the molar mass of the structure shown.

Tests used:
physchem = assay type: physicochemical
Experimental: The solubility assay was based on the addition of an excess of the drug to different solutions with increasing concentrations of two different cyclodextrins, 2-hydroxypropyl-β-cyclodextrin (HPβCD) or 2-hydroxypropyl-ɣ-cyclodextrin (HPγCD). […] Afterwards, the resultant solutions were centrifugated (Eppendorf® Centrifuge 5804R) at 12,000 rpm for 30 min and 25 °C. […] Each measurement was performed in triplicate.

[1] = Particle size of cyclodextrin/drug aggregates by TEM; assay type: physicochemical
Experimental: Samples were placed on copper grids and stained with 2% (w/v) phosphotungstic acid. Samples were dried and evaluated by TEM observation using an accelerating voltage of 200 kV.
Particle size was measured using Image-Pro Plus Image Analysis Software Version 6.0.0.260 (Media Cybernetics, Inc., Rockville, MD, USA).

Which results are given for `C[C@@H]1C/C=C/C=C/C=C/C=C/[C@H](O[C@@H]2O[C@H](C)[C@@H](O)[C@H](N)[C@@H]2O)C[C@@H]2O[C@](O)(C[C@@H](O)C[C@H]3O[C@@H]3/C=C/C(=O)O1)C[C@H](O)[C@H]2C(=O)O` [Natamycin]?
solubility at 7 days (physchem): 35.3 ± 14 µg/mL (≈ 53 µM); average particle size (TEM) ([1]; saturated solution of natamycin in 40% (w/v) HPβCD): 80.25 ± 35.81 nm; average particle size (TEM) ([1]; saturated solution of natamycin in 40% (w/v) HPβCD with 1% (w/v) voriconazole): 148.96 ± 32.89 nm
